Assay results from patent US20240360177A1, “PEPTIDES WITH ANTIMICROBIAL ACTIVITIES” (priority 2021, published 2024).
Converted amounts (≈) assume the structure as drawn. Like-named read-outs stand apart in the source and are kept apart here. Non-standard residues stand in square brackets, D forms with d. Residues, ends and D or L forms follow the SMILES beside them. Aoc = NCCCCCCCC(=O)O; βAla = NCCC(=O)O

What was measured:
Scedosporium spp. = details: 72 h
C. gattii = details: 72 h
C. tropicalis = details: 24 h
C. neoformans = details: 72 h
C. albicans = details: 24 h
C. glabrata = details: 24 h
in vitro [1] = details: human, human serum, full strength
C. dubliniensis = details: 24 h
C. krusei = details: 24 h
in vitro [2] = details: human
C. parapsilosis = details: 24 h
Fusarium spp. = details: 48 h
C. auris = details: 24 h
[3] = tested on: Escherichia coli ATCC 25922; assay type: cell-based
[4] = tested on: Staphylococcus aureus ATCC 29213; assay type: cell-based
[5] = tested on: Pseudomonas aeruginosa ATCC 27853; assay type: cell-based
Paecilomyces variotii = details: 48 h
Rhizopus arrhizus = details: 24 h
Coccidioides species = details: N = 3 strains; 48-72 hrs; >50% inhibition
[6] = Acute toxicity in CD-1 mice; details: both sexes, mouse, in vivo
Procedure: Acute toxicity and subacute toxicity of ACPs were tested in CD-1 mice. In the acute toxicity study, groups of CD-1 male or female mice were administered single intravenous or intraperitoneal escalating doses (n=2-3 per dose) of the peptides dissolved in normal saline for injection or in phosphate buffered saline. The intravenous dose was administered via tail vein with a slow push over 15-20 seconds. Doses were escalated based on tolerability.

[7] = EC50 cytotoxicity in HepG2, intracellular ATP assay

Row | SMILES | MIC Range Scedosporium spp. (Scedosporium spp.) [µg/mL] | MIC C. gattii (C. gattii) [µg/mL] | MIC C. tropicalis (C. tropicalis) [µg/mL] | MIC C. neoformans (C. neoformans) [µg/mL] | MIC C. albicans (C. albicans) [µg/mL] | MIC C. glabrata (C. glabrata) [µg/mL] | remaining at 2 h, 5 μM (in vitro [1]) [%] | MIC C. dubliniensis (C. dubliniensis) [µg/mL] | MIC C. krusei (C. krusei) [µg/mL] | EC50 (in vitro [2]; [7]) [µg/mL] | MIC50 Candida species (Candida spp.) [µg/mL] | MIC90 Candida species (Candida spp.) [µg/mL] | MIC C. parapsilosis (C. parapsilosis) [µg/mL] | MIC Range Fusarium spp. (Fusarium spp.) [µg/mL] | MIC C. auris (C. auris) [µg/mL] | MIC Range Lomentospora prolificans (Lomentospora prolificans) [µg/mL] | MIC Range Paecilomyces variotii (Paecilomyces variotii) [µg/mL] | MIC Range Rhizopus arrhizus (Rhizopus arrhizus) [µg/mL] | MIC Range Coccidioides species (Coccidioides species) [µg/mL] | also measured
1 | N=C(N)NCCC[C@H](NC(=O)[C@H](CCCNC(=N)N)NC(=O)[C@H](CCCNC(=N)N)NC(=O)[C@H](CCCNC(=N)N)NC(=O)CCNC(=O)[C@H](CCCNC(=N)N)NC(=O)[C@H](CCCNC(=N)N)NC(=O)[C@H](CCCNC(=N)N)NC(=O)[C@H](CCCNC(=N)N)NC(=O)CCNC(=O)[C@H](CCCNC(=N)N)NC(=O)[C@H](CCCNC(=N)N)NC(=O)[C@H](CCCNC(=N)N)NC(=O)CCNC(=O)[C@H](CCCNC(=N)N)NC(=O)[C@H](CCCNC(=N)N)NC(=O)[C@@H](N)CCCNC(=N)N)C(N)=O [SEQ ID NO: 13, RRR-(Apr)-RRR-(Apr)-RRRR-(Apr)-RRRR-NH2] (H-RRR[βAla]RRR[βAla]RRRR[βAla]RRRR-NH2) | 0.25 (≈ 0.103 µM) | 0.5 (≈ 0.207 µM) | 0.5 (≈ 0.207 µM) | 1 (≈ 0.414 µM) | 8 (≈ 3.31 µM) | 32 (≈ 13.2 µM) | ~40 | 2 (≈ 0.828 µM) | 2 (≈ 0.828 µM) | > 300 | 4 (≈ 1.66 µM) | 16 (≈ 6.62 µM) | 0.25 (≈ 0.103 µM) | 0.5 to 2 | 4 (≈ 1.66 µM) | – | – | – | – | –
2 | N=C(N)NCCC[C@H](NC(=O)CCNC(=O)[C@H](CCCNC(=N)N)NC(=O)[C@@H](CCCNC(=N)N)NC(=O)[C@@H](N)CCCNC(=N)N)C(=O)N[C@H](CCCNC(=N)N)C(=O)N[C@@H](CCCNC(=N)N)C(=O)NCCC(=O)N[C@@H](CCCNC(=N)N)C(=O)N[C@H](CCCNC(=N)N)C(=O)N[C@@H](CCCNC(=N)N)C(=O)N[C@H](CCCNC(=N)N)C(=O)NCCC(=O)N[C@@H](CCCNC(=N)N)C(=O)N[C@H](CCCNC(=N)N)C(=O)N[C@@H](CCCNC(=N)N)C(=O)N[C@H](CCCNC(=N)N)C(N)=O [SEQ ID NO: 15, RrR-(Apr)-RrR-(Apr)-RrRr-(Apr)-RrRr-NH2] (H-R[dR]R[βAla]R[dR]R[βAla]R[dR]R[dR][βAla]R[dR]R[dR]-NH2) | 0.25 to 0.5 | 0.25 (≈ 0.103 µM) | 0.25 (≈ 0.103 µM) | 0.5 (≈ 0.207 µM) | 1 (≈ 0.414 µM) | 0.5 (≈ 0.207 µM) | ~100 | 0.5 (≈ 0.207 µM) | 0.5 (≈ 0.207 µM) | > 300 | 0.5 (≈ 0.207 µM) | 1 (≈ 0.414 µM) | 0.25 (≈ 0.103 µM) | 0.12 to 0.25 | 0.5 (≈ 0.207 µM) | – | – | – | – | MIC Escherichia coli [3]: 32 µg/mL (≈ 13.2 µM); MIC Staphylococcus aureus [4]: 16 µg/mL (≈ 6.62 µM); MIC Pseudomonas aeruginosa [5]: 64 µg/mL (≈ 26.5 µM)
3 | N=C(N)NCCC[C@@H](N)C(=O)N[C@@H](CCCNC(=N)N)C(=O)N[C@H](CCCNC(=N)N)C(=O)NCC(=O)N[C@H](CCCNC(=N)N)C(=O)N[C@@H](CCCNC(=N)N)C(=O)N[C@H](CCCNC(=N)N)C(=O)NCC(=O)N[C@H](CCCNC(=N)N)C(=O)N[C@@H](CCCNC(=N)N)C(=O)N[C@H](CCCNC(=N)N)C(=O)N[C@@H](CCCNC(=N)N)C(=O)NCC(=O)N[C@H](CCCNC(=N)N)C(=O)N[C@@H](CCCNC(=N)N)C(=O)N[C@H](CCCNC(=N)N)C(=O)N[C@@H](CCCNC(=N)N)C(=O)O [SEQ ID NO: 3, rRr-G-rRr-G-rRrR-G-rRrR] (H-[dR]R[dR]G[dR]R[dR]G[dR]R[dR]RG[dR]R[dR]R-OH) | ≤0.12 | 0.5 (≈ 0.21 µM) | 0.25 (≈ 0.105 µM) | 0.5 (≈ 0.21 µM) | 0.5 (≈ 0.21 µM) | 0.25 (≈ 0.105 µM) | – | 0.25 (≈ 0.105 µM) | 1 (≈ 0.421 µM) | > 300 | – | – | 0.25 (≈ 0.105 µM) | 0.12 to 0.5 | 4 (≈ 1.68 µM) | ≤0.12 | 0.25 (≈ 0.105 µM) | 1 to 8 | 0.25 to 0.5 | EC50 (in vitro [2]; EC50 cytotoxicity in HepG2 cells (50% cell viability)): > 300 µg/mL; MIC50 against Candida spp. (Candida spp.): 0.5 µg/mL (≈ 0.21 µM); MIC90 against Candida spp. (Candida spp.): 4 µg/mL (≈ 1.68 µM)
4 | N=C(N)NCCC[C@@H](N)C(=O)N[C@@H](CCCNC(=N)N)C(=O)N[C@H](CCCNC(=N)N)C(=O)NCCC(=O)N[C@H](CCCNC(=N)N)C(=O)N[C@@H](CCCNC(=N)N)C(=O)N[C@H](CCCNC(=N)N)C(=O)NCCC(=O)N[C@H](CCCNC(=N)N)C(=O)N[C@@H](CCCNC(=N)N)C(=O)N[C@H](CCCNC(=N)N)C(=O)N[C@@H](CCCNC(=N)N)C(=O)NCCC(=O)N[C@H](CCCNC(=N)N)C(=O)N[C@@H](CCCNC(=N)N)C(=O)N[C@H](CCCNC(=N)N)C(=O)N[C@@H](CCCNC(=N)N)C(=O)NCCCCCCCC(=O)O [SEQ ID NO: 16, rRr-(Apr)-rRr-(Apr)-rRrR-(Apr)-rRrR-(Aoa)] (H-[dR]R[dR][βAla][dR]R[dR][βAla][dR]R[dR]R[βAla][dR]R[dR]R[Aoc]-OH) | – | 0.25 (≈ 0.0977 µM) | 0.5 (≈ 0.195 µM) | 0.5 (≈ 0.195 µM) | 1 (≈ 0.391 µM) | 0.5 (≈ 0.195 µM) | – | 0.5 (≈ 0.195 µM) | 0.5 (≈ 0.195 µM) | > 300 | – | – | 0.5 (≈ 0.195 µM) | 0.25 to 1 | 0.5 (≈ 0.195 µM) | 0.25 (≈ 0.0977 µM) | 0.25 (≈ 0.0977 µM) | 2 to 64 | 0.5 (≈ 0.195 µM) | MTD ([6]; single IP dose, read-out: Tolerated single intraperitoneal dose): 10 to 15 mg/kg; MTD ([6]; single IV dose via tail vein, read-out: Tolerated single intravenous dose): 5 to 7.5 mg/kg
5 | N=C(N)NCCC[C@@H](N)C(=O)N[C@@H](CCCNC(=N)N)C(=O)N[C@H](CCCNC(=N)N)C(=O)NCC(=O)N[C@H](CCCNC(=N)N)C(=O)N[C@@H](CCCNC(=N)N)C(=O)N[C@H](CCCNC(=N)N)C(=O)NCC(=O)N[C@H](CCCNC(=N)N)C(=O)N[C@@H](CCCNC(=N)N)C(=O)N[C@H](CCCNC(=N)N)C(=O)N[C@@H](CCCNC(=N)N)C(=O)NCC(=O)N[C@H](CCCNC(=N)N)C(=O)N[C@@H](CCCNC(=N)N)C(=O)N[C@H](CCCNC(=N)N)C(=O)N[C@@H](CCCNC(=N)N)C(N)=O [SEQ ID NO: 4, rRr-G-rRr-G-rRrR-G-rRrR-NH2] (H-[dR]R[dR]G[dR]R[dR]G[dR]R[dR]RG[dR]R[dR]R-NH2) | ≤0.12 | 0.5 (≈ 0.211 µM) | 0.25 (≈ 0.105 µM) | 0.25 (≈ 0.105 µM) | 0.5 (≈ 0.211 µM) | 0.25 (≈ 0.105 µM) | – | 0.25 (≈ 0.105 µM) | 0.5 (≈ 0.211 µM) | > 300 | – | – | 0.25 (≈ 0.105 µM) | 0.06 to 8 | 8 (≈ 3.37 µM) | ≤0.12 | 0.25 (≈ 0.105 µM) | 0.5 to 8 | 0.25 to 0.5 | –
